The target in test [1] is T1, Thromboxane A2 receptor (Homo sapiens) (UniProt P21731).
T1 sequence (whole entry): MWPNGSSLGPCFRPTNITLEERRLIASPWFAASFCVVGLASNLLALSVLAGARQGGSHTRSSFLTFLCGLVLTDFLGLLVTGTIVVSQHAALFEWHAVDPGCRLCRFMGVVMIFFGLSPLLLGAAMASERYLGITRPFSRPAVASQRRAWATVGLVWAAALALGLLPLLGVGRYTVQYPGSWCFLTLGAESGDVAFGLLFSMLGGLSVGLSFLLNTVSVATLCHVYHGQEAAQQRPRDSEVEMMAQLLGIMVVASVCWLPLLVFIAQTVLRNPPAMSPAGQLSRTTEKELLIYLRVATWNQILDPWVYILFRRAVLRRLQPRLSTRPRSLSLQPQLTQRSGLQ
In words: Competition factor was evaluated for Thromboxane A2 receptor binding affinity CF = (IC50-test)/(IC50-standard).

The species named for another test is Homo sapiens. In words: Inhibition of ADP-induced aggregation of human platelet rich plasma. The format is functional.
For test [2], the target named is T1, Thromboxane A2 receptor (Homo sapiens). In words: Competition factor for Thromboxane A2 receptor binding affinity CF = (IC50-test)/(IC50-standard).
Test [3] shares this target. Kind of test: Competition factor was evaluated for Thromboxane A2 receptor binding affinity CF = (IC50-test)/(IC50-standard) by using [3H]iloprost agonist at 10 nM.

As to `O=C(O)CCC/C=C\C[C@H]1/C(=N/OCC2CCCCC2)CC[C@@H]1NS(=O)(=O)c1ccc(Cl)cc1`, the CF in test [1] was 0.62. Also, the IC50 (commonly the midpoint of a concentration-inhibition curve) in the test listed under Homo sapiens came to 1700 nM.

As for `O=C(O)CC/C=C\C[C@@H]1[C@@H](NS(=O)(=O)c2ccc(Cl)cc2)CC[C@@H]1O`, the CF in test [2] was 31. The same molecule gave an IC50 in the test listed under Homo sapiens of 1800 nM.

On to `O=C(O)CCC/C=C\C[C@H]1/C(=N/OCc2ccc(C(F)(F)F)cc2)CC[C@@H]1NS(=O)(=O)c1ccc(Cl)cc1`, for which, in test [2], the CF is 0.07. In addition, in the test filed under Homo sapiens, 200 nM corresponded to half-maximal inhibition (IC50).

`O=C(O)CCC/C=C\C[C@@H]1[C@@H](NS(=O)(=O)c2ccc(F)cc2)CC[C@@H]1O` had a CF in test [2] of 2.1. In the test listed under Homo sapiens, this molecule showed a 50% inhibitory concentration (IC50) of 640 nM.

In test [2], `Cc1ccc(S(=O)(=O)N[C@H]2CC/C(=N\OC(c3ccccc3)c3ccccc3)[C@@H]2C/C=C\CCCC(=O)O)cc1` showed a CF of 4.5. The molecule further gave an IC50 in the test listed under Homo sapiens of 5600 nM.

`Cc1ccc(S(=O)(=O)N[C@@H]2CC[C@@H](O)[C@H]2C/C=C\CCCC(=O)O)cc1` registered a CF in test [2] of 340. The same molecule gave an IC50 in the test listed under Homo sapiens of 5800 nM.

With `C[C@@H]1CC/C(=N\OC(c2ccccc2)c2ccccc2)[C@H]1C/C=C\CCCC(=O)O`, the results for the CF in test [2] and in test [3] were 175 and 25, respectively. The molecule also registered an IC50 in the test filed under Homo sapiens of 800 nM.

Molecule `O=C(O)CCC/C=C\C[C@H]1/C(=N/OC(c2ccccc2)c2ccccc2)CC[C@@H]1NS(=O)(=O)c1ccc(F)cc1` came in with a CF in test [2] of 6.9. Inhibition in the test filed under Homo sapiens was half-maximal at 17000 nM (IC50).

As for `O=C(O)CC/C=C\C[C@@H]1[C@@H](NS(=O)(=O)c2ccc(F)cc2)CC[C@@H]1O`, the CF in test [2] was determined as 200. Further, the IC50 in the test listed under Homo sapiens came to 1600 nM.

As to `O=C(O)CCC/C=C\C[C@H]1/C(=N/OCC2CCCCC2)CC[C@@H]1NS(=O)(=O)c1ccc(F)cc1`, the CF in test [2] came out at 0.5. In the test filed under Homo sapiens, this molecule displayed an IC50 of 1800 nM.

In turn, `O=C(O)CCC/C=C\C[C@H]1C(=O)CC[C@@H]1NS(=O)(=O)c1ccc(Cl)cc1` displayed a CF in test [2] of 2.6. For the same molecule, the half-inhibitory concentration (IC50) in the test listed under Homo sapiens was 640 nM.

With `Cc1ccc(S(=O)(=O)N[C@H]2CC/C(=N\OCC3CCCCC3)[C@@H]2C/C=C\CCCC(=O)O)cc1`, the CF in test [2] is 1. In the test listed under Homo sapiens, this molecule showed an IC50 of 600 nM.

Consider `O=C(O)CCC/C=C\C[C@H]1/C(=N/OC(c2ccccc2)c2ccccc2)CC[C@@H]1NS(=O)(=O)c1ccc(Cl)cc1`, for which the CF in test [2] stood at 4. The molecule also registered an IC50 in the test listed under Homo sapiens of 17000 nM.

For the molecule `O=C(O)CCC/C=C\C[C@@H]1[C@H](O)CC[C@H]1NS(=O)(=O)c1ccc(F)cc1`, the CF in test [2] came out at 26. Further, in the test listed under Homo sapiens, the IC50 turned out to be 6000 nM.

Turning to `O=C(O)CCC/C=C\C[C@H]1C(=O)CC[C@@H]1NS(=O)(=O)c1ccc(F)cc1`, the CF in test [2] stood at 6.4. Besides, half-maximal inhibition in the test listed under Homo sapiens (IC50) required 500 nM.

In the case of `Cc1ccc(S(=O)(=O)N[C@H]2CC[C@H](O)[C@@H]2C/C=C\CCC(=O)O)cc1`, in test [2], the CF was 135. For the same molecule, the IC50 in the test listed under Homo sapiens came to 2500 nM.

Molecule `O=C(O)CCC/C=C\C[C@H]1/C(=N/OCc2ccc(C(F)(F)F)cc2)CC[C@@H]1NS(=O)(=O)c1ccc(F)cc1` displayed a CF in test [2] of 0.13. Moreover, in the test listed under Homo sapiens, half-maximal inhibition (IC50) required 620 nM.

`Cc1ccc(S(=O)(=O)N[C@H]2CCC(=O)[C@@H]2C/C=C\CCCC(=O)O)cc1` displayed a CF in test [2] of 6.5. The same molecule came in with an IC50 in the test filed under Homo sapiens of 670 nM.

Molecule `O=C(O)CCC/C=C\C[C@@H]1[C@H](O)CC[C@H]1NS(=O)(=O)c1ccc(Cl)cc1` registered a CF in test [2] of 85. In addition, inhibition in the test filed under Homo sapiens was half-maximal at 2200 nM (IC50).

With `Cc1ccc(S(=O)(=O)N[C@H]2CC[C@H](O)[C@@H]2C/C=C\CCCC(=O)O)cc1`, the CF in test [2] came out at 7. The molecule also showed an IC50 in the test listed under Homo sapiens of 500 nM.

Regarding `Cc1ccc(S(=O)(=O)N[C@H]2CC/C(=N\OCc3ccc(C(F)(F)F)cc3)[C@@H]2C/C=C\CCCC(=O)O)cc1`, in test [2], the CF was below 1. In the test listed under Homo sapiens, this molecule yielded an IC50 of 180 nM.

`O=C(O)CCC/C=C\C[C@@H]1[C@@H](NS(=O)(=O)c2ccc(Cl)cc2)CC[C@@H]1O` gave a CF in test [2] of 0.68. This molecule returned an IC50 in the test filed under Homo sapiens of 190 nM.

Values taken from ChEMBL document CHEMBL1128160, “An attempt to synthesize prostanoid thromboxane A2 antagonists with an additional prostacyclin like quality” (Bioorg Med Chem Lett, 1995).
